We go through 14 compounds from US20120045393A1 (priority 2009, published 2012).

The structures appear in SMILES notation. Non-standard residues stand in square brackets, D forms with d. Residues, ends and D or L forms follow the SMILES beside them. *: point of attachment. DOTA = O=C(O)CN1CCN(CC(=O)O)CCN(CC(=O)*)CCN(CC(=O)O)CC1; Bpa = N[C@@H](Cc1ccc(C(=O)c2ccccc2)cc1)C(=O)O; Ala(4-thiazolyl) = N[C@@H](Cc1cscn1)C(=O)O; d2Nal = N[C@H](Cc1ccc2ccccc2c1)C(=O)O; azaGly = NNC(=O)O; Sar = CNCC(=O)O
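Note: Cell-associated radioactivity on confluent EFO-27 monolayers in 96-well plates, measured by microplate scintillation counting.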

The first assay concerns LHRH binding sites on human ovarian cancer cells (EFO-27).
Conditions: not given
One may read the EC50 as the midpoint of the concentration-response curve. With `CNCC(=O)N[C@@H](CCCNC(=N)N)C(=O)N[C@@H](Cc1c[nH]c2ccccc12)C(=O)N[C@@H](CO)C(=O)N[C@@H](Cc1c[nH]cn1)C(=O)N[C@H](CCCNC(=N)N)C(=O)N[C@@H](Cc1c[nH]c2ccccc12)C(=O)N[C@@H](Cc1ccc(C(=O)c2ccccc2)cc1)C(=O)N1CCC[C@H]1C(=O)NCCCCNC(=O)CN1CCN(CC(=O)O)CCN(CC(=O)O)CCN(CC(=O)O)CC1` [BRU-3041], the EC50 lay in the range of 230 to 500 nM.
Regarding `CN(CC(=O)N[C@@H](Cc1c[nH]cn1)C(=O)N[C@@H](Cc1c[nH]c2ccccc12)C(=O)N[C@@H](CO)C(=O)N[C@@H](Cc1c[nH]cn1)C(=O)N[C@H](CCCNC(=N)N)C(=O)N[C@@H](Cc1c[nH]c2ccccc12)C(=O)N[C@@H](Cc1ccc(Cl)cc1)C(=O)N1CCC[C@H]1C(=O)NNC(N)=O)C(=O)CN1CCN(CC(=O)O)CCN(CC(=O)O)CCN(CC(=O)O)CC1` [BRU-2725], the EC50 came to 2260 nM.
Turning to `CNCC(=O)N[C@@H](CCCNC(=N)N)C(=O)N[C@@H](Cc1c[nH]c2ccccc12)C(=O)N[C@@H](CO)C(=O)N[C@@H](Cc1c[nH]cn1)C(=O)N[C@H](CCCNC(=N)N)C(=O)N[C@@H](Cc1c[nH]c2ccccc12)C(=O)N[C@@H](Cc1ccc(C(=O)c2ccccc2)cc1)C(=O)N1CCC[C@H]1C(=O)NCCOCCOCCNC(=O)CN1CCN(CC(=O)O)CCN(CC(=O)O)CCN(CC(=O)O)CC1` [BRU-3043], the EC50 is 230 to 500 nM.
Compound `N=C(N)NCCC[C@H](NC(=O)[C@@H](Cc1ccc2ccccc2c1)NC(=O)CN1CCN(CC(=O)O)CCN(CC(=O)O)CCN(CC(=O)O)CC1)C(=O)N[C@@H](Cc1c[nH]c2ccccc12)C(=O)N[C@@H](CO)C(=O)N[C@@H](Cc1c[nH]cn1)C(=O)N[C@H](CCCNC(=N)N)C(=O)N[C@@H](Cc1c[nH]c2ccccc12)C(=O)N[C@@H](Cc1ccc(C(=O)c2ccccc2)cc1)C(=O)N1CCC[C@H]1C(=O)NNC(=O)NCCOCCN` [compound 3022] registered an EC50 of 710 nM.
Compound `N=C(N)NCCC[C@H](NC(=O)[C@@H](Cc1ccc2ccccc2c1)NC(=O)CN1CCN(CC(=O)O)CCN(CC(=O)O)CCN(CC(=O)O)CC1)C(=O)N[C@@H](Cc1c[nH]c2ccccc12)C(=O)N[C@@H](CO)C(=O)N[C@@H](Cc1c[nH]cn1)C(=O)N[C@H](CCCNC(=N)N)C(=O)N[C@@H](Cc1c[nH]c2ccccc12)C(=O)N[C@@H](Cc1ccc(C(=O)c2ccccc2)cc1)C(=O)O` [compound 3064] ({DOTA}-[d2Nal]RWSH[dR]W[Bpa]-OH; N-terminus assumed) displayed an EC50 of 670 nM.
On the same count and under the same terms, under `COc1ccccc1CNC(=O)[C@@H]1CCCN1C(=O)[C@H](Cc1ccc(C(=O)c2ccccc2)cc1)NC(=O)[C@H](Cc1c[nH]c2ccccc12)NC(=O)[C@@H](CCCNC(=N)N)NC(=O)[C@H](Cc1c[nH]cn1)NC(=O)[C@H](CO)NC(=O)[C@H](Cc1c[nH]c2ccccc12)NC(=O)[C@H](CCCNC(=N)N)NC(=O)[C@@H](Cc1ccc2ccccc2c1)NC(=O)CN1CCN(CC(=O)O)CCN(CC(=O)O)CCN(CC(=O)O)CC1` [compound 3020] stands 450 nM; under `CNCC(=O)N[C@@H](Cc1c[nH]cn1)C(=O)N[C@@H](Cc1c[nH]c2ccccc12)C(=O)N[C@@H](CO)C(=O)N[C@@H](Cc1c[nH]cn1)C(=O)N[C@H](CCCNC(=N)N)C(=O)N[C@@H](Cc1c[nH]c2ccccc12)C(=O)N[C@@H](Cc1ccc(O)cc1)C(=O)N1CCC[C@H]1C(=O)NNC(N)=O` [BRU-2439, [Sar^1, Darg^6, azaGly^10]LHRH-II] (HELM PEPTIDE1{[Sar].H.W.S.H.[dR].W.Y.P.[O=C(NN[*:1])[*:2]].[am]}$$$$V2.0; N-terminus assumed), 250 nM; under `CN(CC(=O)N[C@@H](Cc1c[nH]c2ccccc12)C(=O)N[C@@H](CO)C(=O)N[C@@H](Cc1cscn1)C(=O)N[C@H](CCCNC(=N)N)C(=O)N[C@@H](Cc1c[nH]c2ccccc12)C(=O)N[C@@H](Cc1ccc(C(=O)c2ccccc2)cc1)C(=O)N1CCC[C@H]1C(=O)NNC(N)=O)C(=O)CN1CCN(CC(=O)O)CCN(CC(=O)O)CCN(CC(=O)O)CC1` [compound 2740] ({DOTA}-[Sar]WS[Ala(4-thiazolyl)][dR]W[Bpa]P[azaGly]-NH2), 5530 nM.
The compound `CNCC(=O)N[C@@H](CCCNC(=N)N)C(=O)N[C@@H](Cc1c[nH]c2ccccc12)C(=O)N[C@@H](CO)C(=O)N[C@@H](Cc1c[nH]cn1)C(=O)N[C@H](CCCNC(=N)N)C(=O)N[C@@H](Cc1c[nH]c2ccccc12)C(=O)N[C@@H](Cc1ccc(C(=O)c2ccccc2)cc1)C(=O)N1CCC[C@H]1C(=O)NCC1CCCCN1C(=O)CN1CCN(CC(=O)O)CCN(CC(=O)O)CCN(CC(=O)O)CC1` (some centres unmarked) [compound 3102] showed an EC50 of 200 ± 70 nM.

Staying with this assay, now noted: EFO-27 cells, competition with [125I-Tyr8]BRU-2477, 90 min.
The compound `N=C(N)NCCC[C@H](NC(=O)[C@@H](Cc1ccc2ccccc2c1)NC(=O)CN1CCN(CC(=O)O)CCN(CC(=O)O)CCN(CC(=O)O)CC1)C(=O)N[C@@H](Cc1c[nH]c2ccccc12)C(=O)N[C@@H](CO)C(=O)N[C@@H](Cc1c[nH]cn1)C(=O)N[C@H](CCCNC(=N)N)C(=O)N[C@@H](Cc1c[nH]c2ccccc12)C(=O)N[C@@H](Cc1ccc(C(=O)c2ccccc2)cc1)C(=O)N1CCC[C@H]1C(=O)NCC(=O)N[C@@H](CCC(N)=O)C(N)=O` [compound 2971] ({DOTA}-[d2Nal]RWSH[dR]W[Bpa]PGQ-NH2) returned an EC50 of 490 nM. This lies in the sub-micromolar range.
Compound `N=C(N)NCCC[C@H](NC(=O)[C@@H](Cc1ccc2ccccc2c1)NC(=O)CN1CCN(CC(=O)O)CCN(CC(=O)O)CCN(CC(=O)O)CC1)C(=O)N[C@@H](Cc1c[nH]c2ccccc12)C(=O)N[C@@H](CO)C(=O)N[C@@H](Cc1c[nH]cn1)C(=O)N[C@H](CCCNC(=N)N)C(=O)N[C@@H](Cc1c[nH]c2ccccc12)C(=O)N[C@@H](Cc1ccc(C(=O)c2ccccc2)cc1)C(=O)N1CCC[C@H]1C(=O)NCC(N)=O` [compound 3005] came in with an EC50 of 660 nM.

Still in this assay, the particulars now being: Table 5: modifications of amino acids at positions 1 and 2; in vitro binding on EFO-27 cells.
In turn, `N=C(N)NCCC[C@@H](NC(=O)[C@H](Cc1c[nH]cn1)NC(=O)[C@H](CO)NC(=O)[C@H](Cc1c[nH]c2ccccc12)NC(=O)[C@H](Cc1c[nH]cn1)NC(=O)[C@@H]1CSCN1C(=O)CNC(=O)CN1CCN(CC(=O)O)CCN(CC(=O)O)CCN(CC(=O)O)CC1)C(=O)N[C@@H](Cc1c[nH]c2ccccc12)C(=O)N[C@@H](Cc1ccc(C(=O)c2ccccc2)cc1)C(=O)N1CCC[C@H]1C(=O)NNC(N)=O` [BRU-2728] had an EC50 of 3150 nM.
Compound `N=C(N)NCCC[C@@H](NC(=O)[C@H](Cc1c[nH]cn1)NC(=O)[C@H](CO)NC(=O)[C@H](Cc1c[nH]c2ccccc12)NC(=O)[C@H](Cc1c[nH]cn1)NC(=O)CNC(=O)CN1CCN(CC(=O)O)CCN(CC(=O)O)CCN(CC(=O)O)CC1)C(=O)N[C@@H](Cc1c[nH]c2ccccc12)C(=O)N[C@@H](Cc1ccc(C(=O)c2ccccc2)cc1)C(=O)N1CCC[C@H]1C(=O)NNC(N)=O` [BRU-2733] yielded an EC50 of 1180 nM.
In turn, `N=C(N)NCCC[C@@H](NC(=O)[C@H](Cc1c[nH]cn1)NC(=O)[C@H](CO)NC(=O)[C@H](Cc1c[nH]c2ccccc12)NC(=O)[C@H](Cc1c[nH]cn1)NC(=O)[C@H](Cc1ccccc1)NC(=O)CN1CCN(CC(=O)O)CCN(CC(=O)O)CCN(CC(=O)O)CC1)C(=O)N[C@@H](Cc1c[nH]c2ccccc12)C(=O)N[C@@H](Cc1ccc(C(=O)c2ccccc2)cc1)C(=O)N1CCC[C@H]1C(=O)NNC(N)=O` [BRU-2735] showed an EC50 of 1140 nM.
